Experimental data: patent US20130213851A1, “OMEGA 3 FATTY ACID FORMULATIONS” (CENESTRA LLC., priority 2005, published 2013)

Test system: Attention Deficit Hyperactivity Disorder (ADHD)-combined type, and Tic Disorder
Assay: Case report: cognition, attention and tics after OMAX3 augmentation
Format: in vivo, human
Conditions: for treatment response of tics: past use
Description: […] […] Past medication trials included: Strattera (atomoextine), Adderall, Adderall XR, methylphenidate, Tenex (guanfacine), and Concerta. His most recent medication treatment was with Concerta 54 mg per day.
R's Tic Disorder was comprised of both vocal and motor tics in the form of random verbalizations or screeching sounds, as well as either a facial and neck twitch.
The patient was treated with OMAX3, 2 capsules per day (1125 mg EPA, 275 mg DHA, 1500 mg Total Omega-3 fatty acids) for the purpose of enhancing their attention and cognitive function.

## Cc1nc2n(c(=O)c1CCN1CCC(c3noc4cc(F)ccc34)CC1)CCCC2 [Risperdal, risperidone]
Patient history
  treatment response of tics: only a partial treatment response

## N=C(N)NC(=O)Cc1c(Cl)cccc1Cl [Tenex, guanfacine]
Past use for tics, patient history
  tolerability: poor tolerability
Patient history
  treatment response of tics: only a partial treatment response

## COC(=O)C(c1ccccc1)C1CCCCN1 (stereo not shown) [Concerta]
patient's report at baseline, Concerta 54 mg per day, before OMAX3
  inattention symptoms: sufficiently improved
